According to PubChem BioAssay AID192 (DTP/NCI, 2004):
“And” between values parts separate entries of the source, which are not always exact repeats. Identical values can stand only once. Inconclusive results and toxic doses are left out.

Tested on: BDF1 mice, B16 melanoma ip, median survival T/C
Assay: NCI In Vivo Anticancer Drug Screen. Data for tumor model B16 Melanoma (intraperitoneal) in B6D2F1 (BDF1) mice
Conditions: endpoint: median survival time, higher = longer survival
Outline: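 Each result divides a survival or tumor-size measurement in the compound-treated group by the same measurement in the vehicle group.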

[1] = dose: 0.04 mg/kg/injection, schedule: Q01DX009 (ip), vehicle: saline
[2] = dose: 0.32 mg/kg/injection, schedule: Q01DX009 (ip), vehicle: saline
[3] = dose: 25.0 mg/kg/injection, schedule: Q01DX009 (ip), vehicle: saline
[4] = dose: 100.0 mg/kg/injection, schedule: Q01DX009 (ip), vehicle: saline
[5] = dose: 200.0 mg/kg/injection, schedule: Q01DX009 (ip), vehicle: saline
[6] = dose: 50.0 mg/kg/injection, schedule: Q01DX009 (ip), vehicle: saline
[7] = dose: 100.0 mg/kg/injection, schedule: Q01DX009 (ip), vehicle: saline with Tween-80
[8] = dose: 200.0 mg/kg/injection, schedule: Q01DX009 (ip), vehicle: saline with Tween-80
[9] = dose: 100.0 mg/kg/injection, schedule: Q01DX009 (ip), vehicle: Klucel (hydroxypropylcellulose) (HPC)
[10] = dose: 200.0 mg/kg/injection, schedule: Q01DX009 (ip), vehicle: Klucel (hydroxypropylcellulose) (HPC)
[11] = dose: 400.0 mg/kg/injection, schedule: Q01DX009 (ip), vehicle: Klucel (hydroxypropylcellulose) (HPC)
[12] = dose: 12.5 mg/kg/injection, schedule: Q01DX009 (ip), vehicle: Klucel (hydroxypropylcellulose) (HPC)
[13] = dose: 25.0 mg/kg/injection, schedule: Q01DX009 (ip), vehicle: saline with Tween-80
[14] = dose: 50.0 mg/kg/injection, schedule: Q01DX009 (ip), vehicle: saline with Tween-80

With `COC1C(O)CC(OC2CC(Oc3cc4cc5c(c(O)c4c(O)c3C)C(=O)[C@@H](OC3CC(OC4CC(OC6CC(C)(O)C(OC(C)=O)C(C)O6)C(O)C(C)O4)C(O)C(C)O3)[C@H]([C@H](OC)C(=O)[C@@H](O)[C@@H](C)O)C5)OC(C)C2OC(C)=O)OC1C` (some centres undefined) the T/C (dose: 0.01 mg/kg/injection, schedule: Q01DX009 (ip), vehicle: Klucel (hydroxypropylcellulose) (HPC)) was 111 % of control, the T/C (dose: 0.02 mg/kg/injection, schedule: Q01DX009 (ip), vehicle: Klucel (hydroxypropylcellulose) (HPC)) was 111 % of control and the T/C (dose: 0.02 mg/kg/injection, schedule: Q01DX009 (ip), vehicle: saline) was 167 % of control. The T/C (dose: 0.03 mg/kg/injection, schedule: Q01DX009 (ip), vehicle: saline) was 152 % of control, the T/C (dose: 0.04 mg/kg/injection, schedule: Q01DX009 (ip), vehicle: Klucel (hydroxypropylcellulose) (HPC)) was 123 % of control and the T/C [1] was 175 % of control. For the same molecule, the T/C (dose: 0.07 mg/kg/injection, schedule: Q01DX009 (ip), vehicle: saline) was 161 % of control, the T/C (dose: 0.08 mg/kg/injection, schedule: Q01DX009 (ip), vehicle: saline) was 154 % of control and the T/C (dose: 0.13 mg/kg/injection, schedule: Q01DX009 (ip), vehicle: saline) was 150 % of control. The T/C (dose: 0.16 mg/kg/injection, schedule: Q01DX009 (ip), vehicle: Klucel (hydroxypropylcellulose) (HPC)) was 150 % of control and 157 % of control, the T/C (dose: 0.16 mg/kg/injection, schedule: Q01DX009 (ip), vehicle: saline) was 152 % of control and the T/C (dose: 0.25 mg/kg/injection, schedule: Q01DX009 (ip), vehicle: saline) was 152 % of control. For the same molecule, the T/C [2] was 94 % of control, the T/C (dose: 3.8 micrograms/kg/injection, schedule: Q01DX009 (ip), vehicle: water) was 111 % of control and the T/C (dose: 7.5 micrograms/kg/injection, schedule: Q01DX009 (ip), vehicle: water) was 109 % of control. For the same molecule, the T/C (dose: 15.0 micrograms/kg/injection, schedule: Q01DX009 (ip), vehicle: Klucel (hydroxypropylcellulose) (HPC)) was 109 % of control, the T/C (dose: 15.0 micrograms/kg/injection, schedule: Q01DX009 (ip), vehicle: saline) was 94 % of control and the T/C (dose: 30.0 micrograms/kg/injection, schedule: Q01DX009 (ip), vehicle: Klucel (hydroxypropylcellulose) (HPC)) was 96 % of control. For the same molecule, the T/C (dose: 30.0 micrograms/kg/injection, schedule: Q01DX009 (ip), vehicle: saline) was 88 % of control, the T/C (dose: 30.0 micrograms/kg/injection, schedule: Q01DX009 (ip), vehicle: water) was 159 % of control and the T/C (dose: 60.0 micrograms/kg/injection, schedule: Q01DX009 (ip), vehicle: saline) was 100 % of control. For the same molecule, the T/C (dose: 120.0 micrograms/kg/injection, schedule: Q01DX009 (ip), vehicle: Klucel (hydroxypropylcellulose) (HPC)) was 109 % of control, the T/C (dose: 120.0 micrograms/kg/injection, schedule: Q01DX009 (ip), vehicle: saline) was 94 % of control and the T/C (dose: 240.0 micrograms/kg/injection, schedule: Q01DX009 (ip), vehicle: saline) was 100 % of control.
With `Nc1ncnc2c1ccn2C1OC(CO)C(O)C1O` (centres undefined) the T/C [2] was 107 % of control, the T/C (dose: 0.5 mg/kg/injection, schedule: Q01DX009 (ip), vehicle: Klucel (hydroxypropylcellulose) (HPC)) was 91 % of control and the T/C (dose: 0.63 mg/kg/injection, schedule: Q01DX009 (ip), vehicle: saline) was 120 % of control. For the same molecule, the T/C (dose: 1.0 mg/kg/injection, schedule: Q01DX009 (ip), vehicle: Klucel (hydroxypropylcellulose) (HPC)) was 99 % of control and the T/C (dose: 2.0 mg/kg/injection, schedule: Q01DX009 (ip), vehicle: Klucel (hydroxypropylcellulose) (HPC)) was 90 % of control.
In the case of `C#CCOCC1CN(C)C(=O)O1` (centres undefined), the T/C [3] is reported as 109 % of control, the T/C [4] is reported as 102 % of control and the T/C [5] is reported as 109 % of control. The T/C (dose: 400.0 mg/kg/injection, schedule: Q01DX009 (ip), vehicle: saline) was 107 % of control.
For `Cc1cc(C)[nH]c(=O)n1`, the T/C [3] was 115 % of control, the T/C [6] was 101 % of control and the T/C [4] was 102 % of control.
`O=CNC(CSSCC(NC=O)C(=O)O)C(=O)O` (centres undefined) was tested, and the T/C [7] was 93 % of control and the T/C [8] was 95 % of control.
In the case of `CCc1occ(C(=O)OC)c1C(=O)OC`, the T/C (dose: 100.0 mg/kg/injection, schedule: Q04DX003 (ip), vehicle: saline with Tween-80) is reported as 102 % of control, the T/C (dose: 200.0 mg/kg/injection, schedule: Q04DX003 (ip), vehicle: saline with Tween-80) is reported as 97 % of control and the T/C (dose: 400.0 mg/kg/injection, schedule: Q04DX003 (ip), vehicle: saline with Tween-80) is reported as 95 % of control.
For `CC1CC(NC(=O)/C=C/C(=O)O)CC(C)(C)C1` (centres undefined), the T/C [9] was 93 % of control, the T/C [10] was 95 % of control and the T/C [11] was 93 % of control.
With `O=[N+]([O-])c1cc([N+](=O)[O-])c(Br)cc1Cl` the T/C (dose: 2.5 mg/kg/injection, schedule: Q01DX009 (ip), vehicle: saline with Tween-80) was 92 % of control, the T/C (dose: 5.0 mg/kg/injection, schedule: Q01DX009 (ip), vehicle: saline with Tween-80) was 98 % of control and the T/C (dose: 10.0 mg/kg/injection, schedule: Q01DX009 (ip), vehicle: saline with Tween-80) was 87 % of control. For the same molecule, the T/C (dose: 20.0 mg/kg/injection, schedule: Q01DX009 (ip), vehicle: Klucel (hydroxypropylcellulose) (HPC)) was 94 % of control.
With `Clc1c(Cl)c(CBr)c(Cl)c(CBr)c1Cl` the T/C (dose: 1.56 mg/kg/injection, schedule: Q01DX009 (ip), vehicle: Klucel (hydroxypropylcellulose) (HPC)) was 100 % of control, the T/C (dose: 6.25 mg/kg/injection, schedule: Q01DX009 (ip), vehicle: Klucel (hydroxypropylcellulose) (HPC)) was 105 % of control and the T/C [12] was 102 % of control. For the same molecule, the T/C (dose: 12.5 mg/kg/injection, schedule: Q04DX003 (ip), vehicle: saline with Tween-80) was 86 % of control, the T/C [13] was 95 % of control and the T/C (dose: 25.0 mg/kg/injection, schedule: Q04DX003 (ip), vehicle: saline with Tween-80) was 92 % of control. The T/C [14] was 97 % of control and the T/C [7] was 95 % of control.
In the case of `N=C(N)c1ccc(/C=C/c2ccc(C(=N)N)cc2O)cc1`, the T/C (dose: 3.12 mg/kg/injection, schedule: Q01DX009 (ip), vehicle: water) is reported as 105 % of control and 107 % of control, the T/C (dose: 6.25 mg/kg/injection, schedule: Q01DX009 (ip), vehicle: water) is reported as 88 % of control and 101 % of control and the T/C (dose: 12.5 mg/kg/injection, schedule: Q01DX009 (ip), vehicle: water) is reported as 101 % of control and 107 % of control. For the same molecule, the T/C (dose: 25.0 mg/kg/injection, schedule: Q01DX009 (ip), vehicle: water) was 97 % of control and 114 % of control and the T/C (dose: 50.0 mg/kg/injection, schedule: Q01DX009 (ip), vehicle: water) was 93 % of control and 104 % of control.
For `CCCCn1c(O)c(C=N)c(=O)n(CCCC)c1=O`, the T/C (dose: 3.12 mg/kg/injection, schedule: Q01DX009 (ip), vehicle: saline with Tween-80) was 109 % of control and the T/C (dose: 6.25 mg/kg/injection, schedule: Q01DX009 (ip), vehicle: saline with Tween-80) was 97 % of control.
In the case of `CC(C)NNC(=O)C(N)CO` (centres undefined), the T/C [3] is reported as 104 % of control, the T/C [6] is reported as 116 % of control and the T/C [4] is reported as 104 % of control. For the same molecule, the T/C [5] was 111 % of control.
In the case of `ClCC1C(CCl)C2(Cl)C(Cl)=C(Cl)C1(Cl)C2(Cl)Cl` (centres undefined), the T/C [14] is reported as 92 % of control, the T/C [7] is reported as 93 % of control and the T/C [8] is reported as 92 % of control.
With `Cc1nc(NCc2ccccc2)c2cc[nH]c2n1` the T/C [1] was 116 % of control, the T/C (dose: 0.09 mg/kg/injection, schedule: Q01DX009 (ip), vehicle: saline) was 123 % of control and the T/C (dose: 0.39 mg/kg/injection, schedule: Q01DX009 (ip), vehicle: saline) was 113 % of control.
In the case of `COc1ccc2c(ccc3oc([N+](=O)[O-])cc32)c1`, the T/C [12] is reported as 115 % of control, the T/C (dose: 25.0 mg/kg/injection, schedule: Q01DX009 (ip), vehicle: Klucel (hydroxypropylcellulose) (HPC)) is reported as 118 % of control and the T/C (dose: 50.0 mg/kg/injection, schedule: Q01DX009 (ip), vehicle: Klucel (hydroxypropylcellulose) (HPC)) is reported as 123 % of control.
With `O=C1OCC2C1Cc1cc(O)c(O)cc1C2c1ccc(O)c(O)c1` (centres undefined) the T/C [9] was 112 % of control, the T/C [10] was 94 % of control and the T/C [11] was 105 % of control.
`O=C(Nc1ccccc1)c1ccc(Cl)c([N+](=O)[O-])c1` was tested, and the T/C [13] was 113 % of control, the T/C [14] was 111 % of control and the T/C [7] was 106 % of control.
With `O=C(Cc1ccccc1)NC/C=N/O` the T/C [14] was 107 % of control, the T/C [7] was 102 % of control and the T/C [8] was 93 % of control. The T/C (dose: 400.0 mg/kg/injection, schedule: Q01DX009 (ip), vehicle: saline with Tween-80) was 100 % of control.
For `C/C=C/C(=O)NCC(C(C)C)/[N+]([O-])=N/O` (centres undefined), the T/C (dose: 6.25 mg/kg/injection, schedule: Q01DX009 (ip), vehicle: saline) was 100 % of control, the T/C (dose: 12.5 mg/kg/injection, schedule: Q01DX009 (ip), vehicle: saline) was 104 % of control and the T/C [3] was 100 % of control.
